Experimental data: paper PMC9833666, “Designing and identifying β-hairpin peptide macrocycles with antibiotic potential” (Science Advances, 2023)
Bridge positions count the residues as written; N and C are the ends. Ends that are not written are not given here. Peptide text beside a SMILES is read from it.

Assays:
[1] = system: Single-donor human red blood cells; experiment: Hemolysis assay; format: cell-based
Description: Single-donor human red blood cells (Innovative Research, no. IWB3ALS) were washed in PBS and adjusted to a concentration of 1 × 10^9 cells/ml. Each peptide was added individually to 200 μl of cells at a concentration of either 300 μg/ml (SySA library) or 128 μg/ml (SySA-5 optimization library) in a 96-well polypropylene plate (Corning, 3879). PBS alone and 1% Triton X-100 were used for background normalization and 100% hemolysis, respectively. Each reaction was set up in triplicate. Plates were incubated for 3 hours at 37°C. Following incubation, samples were centrifuged at 800g for 20 min, and 100 μl of supernatant was transferred to a flat-bottom 96-well plate (Genesse, 25-104). Percent hemolysis for each sample was determined by normalizing the absorbance at 540 nm for each sample to the average background and dividing by the average absorbance for 1% Triton X-100 (100% hemolysis). Error bars represent 1 SD of triplicate samples.

Escherichia coli W3110 = format: cell-based; details: for Ec W3110 MIC MH: E. coli W3110, MH medium; for Ec W3110 MIC RPMI: E. coli W3110, RPMI medium
Description: MICs were performed by a modifiedClinical and Laboratory Standards Institute) procedure. […] Separately, E. coli W3110 or A. baumannii AB5075 was grown overnight in 5 ml of standard MH at 37°C. Cells from these cultures were diluted to a concentration of 5 × 10^5 to 6 × 10^5 cells/ml in either standard MH, MHII, RPMI, or fetal bovine serum, and 90 μl was added to each well of the 96-well plate containing diluted peptide. Plates were wrapped twice in parafilm and incubated at 37°C for 18 to 24 hours. Wells were examined by eye against wells with no bacteria for signs of growth. MICs were reported as the minimum concentration with no observable growth. In cases where triplicate samples differed, the concentration supported by the median of the three replicates was reported.

| Compound | Ec W3110 MIC MH (Escherichia coli W3110) [µg/mL] | Ec W3110 MIC RPMI (Escherichia coli W3110) [µg/mL] | W3110 MIC (Escherichia coli W3110) [µg/mL] | hemolysis [1] [%] | %Hemo [1] [%] |
| --- | --- | --- | --- | --- | --- |
| CVTVRVNNRGSRLKVSVEVC (disulfide 1-20 (inferred)) [SySA-18] | > 256 | > 256 |  | 0.60 |  |
| CRVRININNRSRTLKLELEC (disulfide 1-20 (inferred)) [SySA-68] | > 256 | > 256 |  | 0.47 |  |
| CC[C@H](C)[C@@H]1NC(=O)[C@H](CCCNC(=N)N)NC(=O)[C@H](CC(C)C)NC(=O)[C@@H](N)CSSC[C@@H](C(=O)O)NC(=O)[C@H](C(C)C)NC(=O)[C@H](CCC(N)=O)NC(=O)[C@H](CC(C)C)NC(=O)[C@H](CO)NC(=O)[C@H](C(C)C)NC(=O)[C@H](CCCNC(=N)N)NC(=O)[C@H](CC(C)C)NC(=O)CNC(=O)[C@H](CCCNC(=N)N)NC(=O)[C@H](CCCNC(=N)N)NC(=O)[C@H](CCCNC(=N)N)NC(=O)[C@H](CC(=O)O)NC(=O)[C@H](CC(N)=O)NC(=O)[C@H](CC(C)C)NC(=O)[C@H](CCCNC(=N)N)NC1=O [SyPA-5] (H-CLRIRLNDRRRGLRVSLQVC-OH; disulfide 1-20) |  |  |  |  | 1.89 |
| CRIKIDVDNRRRTLKLQLEC (disulfide 1-20 (inferred)) [SySA-74] | > 256 | > 256 |  | 0.72 |  |
| CLRIRLNNRRSRVRISVEVC (disulfide 1-20 (inferred)) [SySA-52] | > 256 | > 256 |  | 9.99 |  |
| CC[C@H](C)[C@@H]1NC(=O)[C@H](CCCNC(=N)N)NC(=O)[C@H](CC(C)C)NC(=O)[C@@H](N)CSSC[C@@H](C(=O)O)NC(=O)[C@H](C(C)C)NC(=O)[C@H](CCC(N)=O)NC(=O)[C@H](C(C)C)NC(=O)[C@H](CO)NC(=O)[C@H](C(C)C)NC(=O)[C@H](CCCNC(=N)N)NC(=O)[C@H](CC(C)C)NC(=O)CNC(=O)[C@H](CCCNC(=N)N)NC(=O)[C@H](CCCNC(=N)N)NC(=O)CNC(=O)[C@H](CC(N)=O)NC(=O)[C@H](CC(N)=O)NC(=O)[C@H](CC(C)C)NC(=O)[C@H](CCCNC(=N)N)NC1=O [SyPA-4] (H-CLRIRLNNGRRGLRVSVQVC-OH; disulfide 1-20) |  |  |  |  | 1.59 |
| CRVRININNGGRRVKLEVQC (disulfide 1-20 (inferred)) [SySA-32] | > 256 | > 256 |  | 0.0319 |  |
| CRVKINVDNRSGRVKLELQC (disulfide 1-20 (inferred)) [SySA-69] | > 256 | > 256 |  | 0.72 |  |
| CC(C)C[C@@H]1NC(=O)CNC(=O)[C@H](CCCNC(=N)N)NC(=O)[C@H](CCCNC(=N)N)NC(=O)[C@H](CCCNC(=N)N)NC(=O)[C@H](CC(N)=O)NC(=O)[C@H](CC(N)=O)NC(=O)[C@H](CC(C)C)NC(=O)[C@H](CCCNC(=N)N)NC(=O)[C@H](C(C)C)NC(=O)[C@H]([C@@H](C)O)NC(=O)[C@H](C(C)C)NC(=O)[C@@H](N)CSSC[C@@H](C(=O)O)NC(=O)[C@H](C(C)C)NC(=O)[C@H](CCC(N)=O)NC(=O)[C@H](CC(C)C)NC(=O)[C@H](CO)NC(=O)[C@H](C(C)C)NC(=O)[C@H](CCCNC(=N)N)NC1=O [SyPA-2] (H-CVTVRLNNRRRGLRVSLQVC-OH; disulfide 1-20) |  |  |  |  | 3.75 |
| CC(C)C[C@@H]1NC(=O)[C@H](CCCNC(=N)N)NC(=O)CNC(=O)[C@H](CCCNC(=N)N)NC(=O)[C@H](CCCNC(=N)N)NC(=O)[C@H](CC(N)=O)NC(=O)[C@H](CC(N)=O)NC(=O)[C@H](CC(C)C)NC(=O)[C@H](CCCNC(=N)N)NC(=O)[C@H](C(C)C)NC(=O)[C@H](CCCNC(=N)N)NC(=O)[C@H](CC(C)C)NC(=O)[C@@H](N)CSSC[C@@H](C(=O)O)NC(=O)[C@H](C(C)C)NC(=O)[C@H](CCC(N)=O)NC(=O)[C@H](CC(C)C)NC(=O)[C@H](CO)NC(=O)[C@H](C(C)C)NC(=O)[C@H](CCCNC(=N)N)NC1=O [SyPA-8] (H-CLRVRLNNRRGRLRVSLQVC-OH; disulfide 1-20) |  |  |  |  | 2.87 |
| CC(C)C[C@@H]1NC(=O)[C@H](CCCNC(=N)N)NC(=O)[C@H](CCCNC(=N)N)NC(=O)[C@H](CCCNC(=N)N)NC(=O)CNC(=O)[C@H](CC(N)=O)NC(=O)[C@H](CC(N)=O)NC(=O)[C@H](CC(C)C)NC(=O)[C@H](CCCNC(=N)N)NC(=O)[C@H](C(C)C)NC(=O)[C@H](CCCNC(=N)N)NC(=O)[C@H](C(C)C)NC(=O)[C@@H](N)CSSC[C@@H](C(=O)O)NC(=O)[C@H](C(C)C)NC(=O)[C@H](CCC(N)=O)NC(=O)[C@H](CC(C)C)NC(=O)[C@H](CO)NC(=O)[C@H](C(C)C)NC(=O)[C@H](CCCCN)NC1=O [SyPA-1] (H-CVRVRLNNGRRRLKVSLQVC-OH; disulfide 1-20) |  |  |  |  | 1.30 |

Continued, in another order:

| Ec W3110 MIC MH (Escherichia coli W3110) [µg/mL] | Ec W3110 MIC RPMI (Escherichia coli W3110) [µg/mL] | W3110 MIC (Escherichia coli W3110) [µg/mL] | Compound | hemolysis [1] [%] | %Hemo [1] [%] |
| --- | --- | --- | --- | --- | --- |
| > 256 | > 256 |  | CLRVRVDNGGSRLKITLEVC (disulfide 1-20 (inferred)) [SySA-75] | 2.18 |  |
| > 256 | > 256 |  | CRIRININNRRGRLKLQVEC (disulfide 1-20 (inferred)) [SySA-76] | 0.27 |  |
| > 256 | > 256 |  | CLRIRVNNRGSGLRISVEVC (disulfide 1-20 (inferred)) [SySA-22] | 0.48 |  |
|  |  | >128 | CC[C@H](C)[C@@H]1NC(=O)[C@H](CC(N)=O)NC(=O)[C@H](C(C)C)NC(=O)[C@H](CCCNC(=N)N)NC(=O)[C@H](C(C)C)NC(=O)[C@H](CCCNC(=N)N)NC(=O)[C@@H](N)CSSC[C@@H](C(=O)O)NC(=O)[C@H](CCC(N)=O)NC(=O)[C@H](CC(C)C)NC(=O)[C@H](CCC(N)=O)NC(=O)[C@H](CC(C)C)NC(=O)[C@H](CCCNC(=N)N)NC(=O)[C@H](CC(C)C)NC(=O)[C@H]([C@@H](C)O)NC(=O)[C@H](CCCNC(=N)N)NC(=O)[C@H](CO)NC(=O)[C@H](CCCNC(=N)N)NC(=O)[C@H](CC(N)=O)NC(=O)[C@H](CC(=O)O)NC1=O [SyPA-7] (H-CRVRVNIDNRSRTLRLQLQC-OH; disulfide 1-20) |  | 1.48 |
| > 256 | > 256 |  | CLTVRLNNRGGGVKISVEVC (disulfide 1-20 (inferred)) [SySA-59] | 0.32 |  |
| > 256 | > 256 |  | CLTVRVNNRRSGVRVSVQVC (disulfide 1-20 (inferred)) [SySA-43] | 0.11 |  |
| > 256 | > 256 |  | CRIRIDIDNRGRTVRLEVQC (disulfide 1-20 (inferred)) [SySA-28] | 0.0423 |  |
| > 256 | > 256 |  | CVTIRLNDGGSGLKISLQVC (disulfide 1-20 (inferred)) [SySA-23] | -0.03 |  |
|  |  | >128 | CC[C@H](C)[C@@H]1NC(=O)[C@H](CCCNC(=N)N)NC(=O)[C@H](CC(C)C)NC(=O)CNC(=O)[C@H](CO)NC(=O)[C@H](CCCNC(=N)N)NC(=O)[C@H](CCCNC(=N)N)NC(=O)[C@H](CC(N)=O)NC(=O)[C@H](CC(=O)O)NC(=O)[C@H](CC(C)C)NC(=O)[C@H](CCCNC(=N)N)NC(=O)[C@H](C(C)C)NC(=O)[C@H](CCCNC(=N)N)NC(=O)[C@H](C(C)C)NC(=O)[C@@H](N)CSSC[C@@H](C(=O)O)NC(=O)[C@H](C(C)C)NC(=O)[C@H](CCC(N)=O)NC(=O)[C@H](CC(C)C)NC(=O)[C@H](CO)NC1=O [SyPA-3] (H-CVRVRLDNRRSGLRISLQVC-OH; disulfide 1-20) |  | 0.39 |
| > 256 | > 256 |  | CLTVRVDNRGSRLKVTVEVC (disulfide 1-20 (inferred)) [SySA-55] | -0.10 |  |
